Results reported in US8802674B2, “Aminopyrimidine derivatives as LRRK2 modulators” (Genentech, Inc., priority 2011, dated 2014).

Biological target: LRRK2 (Homo sapiens (Human), UniProt Q5S007, G2019S)
Assay: In Vitro LRRK2 LabChip Assay
Type: biochemical
Conditions: Table 4
Protocol: In Vitro LRRK2 LabChip Assay
This assay was used to determine a compound's potency in inhibiting activity of LRRK2 by determining, Kiapp, IC50, or percent inhibition values. In a polypropylene plate, LRRK2, fluorescently-labeled peptide substrate, ATP and test compound were incubated together. Using a LabChip 3000 (Caliper Life Sciences), after the reaction the substrate was separated by capillary electrophoresis into two populations: phosphorylated and unphosphorylated. The relative amounts of each were quantitated by fluorescence intensity. LRRK2 Ki was determined according to the equation: Y=V0*(1−((x+Ki*(1+S/Km)+Et)/(2*Et)−(((x+Ki*(1+S/Km)+Et)^2−(4*Et*x))^0.5)/(2*Et))). Ki values in Table 4 and elsewhere herein are shown in μM.
Assay conditions and materials used were as follows:
Compound Plate Preparation:
For serial dilutions, 34.6 μl DMSO was added to columns 3-24. For the assay controls, 37.5 μl DMSO was added to columns 1 and 2 of rows A and P. a,d and 50 μl 25 μM G-028831 (Staurosporine) was added to columns 1 and 2, row B. For the samples: to start at 100 μM, 37.5 μl DMSO was to columns 1 and 2, then 12.5 μl 10 mM compound; to start at 10 μM, 78 μl DMSO was added to columns 1 & 2, then 2 μl 10 mM compound; and to start at 1 μM, 25 μM compound (2 μl 10 mM cmpd+798 μl DMSO) was added to empty columns 1 and 2. A Precision instrument was used to perform 1:3.16 serial dilutions (“PLK_BM_serial_halflog”).
ATP was diluted to 282.1 μM in Complete Kinase Buffer (final concentration was 130 μM).
Total and Blank Preparation:
In Complete Reaction Buffer, substrate was diluted to 4 μM. Equal volumes of Complete Reaction Buffer and 4 μM substrate were combined to obtain the blank. Equal volumes of Complete Reaction Buffer and 4 μM substrate were combined and to the combined solution was added 2× final LRRK2 concentration.
To a 50 μl polypropylene plate, 5 μl/well buffer/substrate was added by hand to Blank wells. A Biomek FX was used to start the kinase reaction (“PLK SAR 23 ATP”). The following were added to the appropriate wells:
5 μl/well compound/ATP in Assay Plate;
5 μl/well kinase/substrate in Assay Plate;
The plate was incubated for 2 hours in the dark. Biomek FX was used to stop the kinase reaction (“PLK Stop”), and 10 μl/well Stop solution was added to the Assay Plate. Results were read on the LabChip 3000.
The LabChip 3000 was run using the job “LRRK2IC50” with the following job settings: […]

Sequence of LRRK2 (Q5S007 970-2527 G2019S limits assumed): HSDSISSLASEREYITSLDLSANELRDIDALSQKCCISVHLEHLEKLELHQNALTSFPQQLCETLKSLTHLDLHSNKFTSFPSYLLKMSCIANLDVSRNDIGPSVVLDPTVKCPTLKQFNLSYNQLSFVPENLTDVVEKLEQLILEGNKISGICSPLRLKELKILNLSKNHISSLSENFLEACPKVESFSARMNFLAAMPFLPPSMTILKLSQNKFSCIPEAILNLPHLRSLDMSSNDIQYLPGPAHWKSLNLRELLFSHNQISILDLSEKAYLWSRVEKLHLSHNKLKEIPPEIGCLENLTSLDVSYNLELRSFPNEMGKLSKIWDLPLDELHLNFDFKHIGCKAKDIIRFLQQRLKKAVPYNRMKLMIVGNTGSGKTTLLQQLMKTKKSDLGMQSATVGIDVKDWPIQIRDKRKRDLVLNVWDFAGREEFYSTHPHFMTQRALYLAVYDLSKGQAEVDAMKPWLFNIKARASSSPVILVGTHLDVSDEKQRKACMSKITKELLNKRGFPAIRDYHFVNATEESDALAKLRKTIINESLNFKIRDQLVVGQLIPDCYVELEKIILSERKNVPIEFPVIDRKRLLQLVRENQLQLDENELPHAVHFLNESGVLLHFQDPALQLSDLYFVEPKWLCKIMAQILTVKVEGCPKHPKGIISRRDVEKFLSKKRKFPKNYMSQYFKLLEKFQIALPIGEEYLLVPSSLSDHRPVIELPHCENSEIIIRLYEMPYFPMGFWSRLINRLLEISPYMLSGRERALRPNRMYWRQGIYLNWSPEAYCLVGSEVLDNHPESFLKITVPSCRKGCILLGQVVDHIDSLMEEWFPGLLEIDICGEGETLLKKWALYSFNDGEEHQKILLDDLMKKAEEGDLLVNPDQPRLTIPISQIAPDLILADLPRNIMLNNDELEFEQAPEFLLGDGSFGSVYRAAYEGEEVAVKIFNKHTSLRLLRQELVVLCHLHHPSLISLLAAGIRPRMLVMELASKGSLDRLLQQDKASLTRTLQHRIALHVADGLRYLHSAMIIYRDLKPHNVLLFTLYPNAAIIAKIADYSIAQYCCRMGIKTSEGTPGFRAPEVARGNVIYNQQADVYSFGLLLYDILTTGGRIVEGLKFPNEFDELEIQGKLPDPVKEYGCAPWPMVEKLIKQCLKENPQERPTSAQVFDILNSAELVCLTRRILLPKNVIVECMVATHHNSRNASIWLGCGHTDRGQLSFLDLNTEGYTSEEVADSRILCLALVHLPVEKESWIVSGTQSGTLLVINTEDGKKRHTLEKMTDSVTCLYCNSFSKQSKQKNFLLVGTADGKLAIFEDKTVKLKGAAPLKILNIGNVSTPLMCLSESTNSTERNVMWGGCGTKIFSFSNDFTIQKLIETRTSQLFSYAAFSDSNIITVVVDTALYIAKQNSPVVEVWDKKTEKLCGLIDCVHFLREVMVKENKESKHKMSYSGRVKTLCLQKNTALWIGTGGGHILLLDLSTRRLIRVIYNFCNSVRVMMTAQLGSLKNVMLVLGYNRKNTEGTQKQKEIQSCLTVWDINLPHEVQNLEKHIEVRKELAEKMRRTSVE

Row | Compound | Ki [nM]
1 | CNc1nc(Nc2cc(OC)c(C(=O)NC3(C#N)CC3)cc2Cl)ncc1Cl [Example 170, 5-Chloro-4-(5-chloro-4-methylamino-pyrimidin-2-ylamino)-N-(l-cyano-cyclopropyl)-2-methoxy-benzamide] | 13.9
2 | CNc1nc(Nc2cc(OC)c(C(=O)N(C)CC(C)(C)O)cc2Cl)ncc1C(F)(F)F [Example 181, 5-Chloro-N-(2-hydroxy-2-methyl-propyl)-2-methoxy-N-methyl-4-(4-methylamino-5-trifluoromethyl-pyrimidin-2-ylamino)-benzamide] | 6.3
3 | COc1cc(C(=O)N2CCOCC2)ccc1Nc1ncc(Cl)c(OC)n1 [Example 61, [4-(5-Chloro-4-methoxy-pyrimidin-2-ylamino)-3-methoxy-phenyl]-morpholin-4-yl-methanone] | 10.4
4 | COc1cc(C(=O)N2CCOCC2)ccc1Nc1ncc(Cl)c(NCCS(C)(=O)=O)n1 [Example 219, {4-[5-Chloro-4-(2-methanesulfonyl-ethylamino)-pyrimidin-2-ylamino]-3-methoxy-phenyl}-morpholin-4-yl-methanone] | 26.4
5 | CCNc1nc(Nc2ccc(C(=O)N3CCOCC3)cc2OC(F)(F)F)ncc1C(F)(F)F [Example 234, (4-(4-(ethylamino)-5-(trifluoromethyl)pyrimidin-2-ylamino)-3-(trifluoromethoxy)phenyl)(morpholino) methanone] | 3.2
6 | CNc1nc(Nc2ccc(C(=O)N3CCOCC3)cc2OC)ncc1OC [Example 133, (3-methoxy-4-(5-methoxy-4-(methylamino)pyrimidin-2-ylamino)phenyl) (morpholino) methanone] | 259
7 | CNc1nc(Nc2ccc(C(=O)N3CCOC(CC(C)C)C3)cc2OC)ncc1Cl (stereo not shown) [Example 41, [4-(5-Chloro-4-methylamino-pyrimidin-2-ylamino)-3-methoxy-phenyl]-(2-isobutyl-morpholin-4-yl)-methanone] | 4.2
8 | CCNc1nc(Nc2ccc(C(=O)N3CCOCC3)c(F)c2OC)ncc1C(F)(F)F [Example 241, (4-(4-(ethylamino)-5-(trifluoromethyl)pyrimidin-2-ylamino)-2-fluoro-3-methoxyphenyl) (morpholino)methanone] | 1.8
9 | CNc1nc(Nc2ccc(C(=O)N3C4CCC3COC4)cc2OC)ncc1Cl [Example 57, [4-(5-Chloro-4-methylamino-pyrimidin-2-ylamino)-3-methoxy-phenyl]-(3-oxa-8-aza-bicyclo[3.2.1]oct-8-yl)-methanone] | 2.5
10 | CNc1nc(Nc2ccc(C(=O)N3CCC3)cc2OC)ncc1C#N [Example 212, 2-[4-(Azetidine-1-carbonyl)-2-methoxy-phenylamino]-4-methylamino-pyrimidine-5-carbonitrile] | 26.4
11 | CNc1nc(Nc2ccc(C(=O)N3CCOCC3)cc2OC(F)(F)F)ncc1C(F)(F)F [Example 235, (4-(4-(methylamino)-5-(trifluoromethyl)pyrimidin-2-ylamino)-3-(trifluoromethoxy)phenyl)(morpholino) methanone] | 11.2
12 | CNc1nc(Nc2ccc(C(=O)N3CC[C@@H](O)C3)cc2OC)ncc1Br [Example 77, [4-(5-Bromo-4-methylamino-pyrimidin-2-ylamino)-3-methoxy-phenyl]-((R)-3-hydroxy-pyrrolidin-1-yl)-methanone] | 5.1
13 | COCCNc1nc(Nc2ccc(C(=O)N3CCOCC3)cc2OC)ncc1Br [Example 229, {4-[5-Bromo-4-(2-methoxy-ethylamino)-pyrimidin-2-ylamino]-3-methoxy-phenyl}-morpholin-4-yl-methanone] | 4.1
14 | CNc1nc(Nc2ccc(C(=O)N3CCN(C4CCC4)CC3)cc2OC)ncc1Br [Example 74] | 2.3
15 | COc1cc(C(=O)N2CCOCC2)ccc1Nc1ncc(Cl)c(OC(C)C)n1 [Example 59, [4-(5-Chloro-4-isopropoxy-pyrimidin-2-ylamino)-3-methoxy-phenyl]-morpholin-4-yl-methanone] | 13
16 | CCNc1nc(Nc2cc(OC)c(C(=O)NC3CC3)cc2Cl)ncc1C(F)(F)F [Example 148, 5-Chloro-N-cyclopropyl-4-(4-ethylamino-5-trifluoromethyl-pyrimidin-2-ylamino)-2-methoxy-benzamide] | 3.5
17 | CNc1nc(Nc2ccc(C(=O)N3CCOCC3)cc2C2CC2)ncc1Cl [Example 193, [4-(5-Chloro-4-methylamino-pyrimidin-2-ylamino)-3-cyclopropyl-phenyl]-morpholin-4-yl-methanone] | 23.9
18 | COCCNc1nc(Nc2cc(F)c(C(=O)N3CCOCC3)cc2OC)ncc1Br [Example 185, {4-[5-Bromo-4-(2-methoxy-ethylamino)-pyrimidin-2-ylamino]-2-fluoro-5-methoxy-phenyl}-morpholin-4-yl-methanone] | 6.9
19 | CNc1nc(Nc2cc(OC)c(C(=O)NCCO)cc2Cl)ncc1Cl [Example 142, 5-Chloro-4-(5-chloro-4-methylamino-pyrimidin-2-ylamino)-N-(2-hydroxy-ethyl)-2-methoxy-benzamide] | 11
20 | CNc1nc(Nc2ccc(C(=O)N3CCC(O)CC3)cc2OC)ncc1F [Example 2, [4-(5-Fluoro-4-methylamino-pyrimidin-2-ylamino)-3-methoxy-phenyl]-(4-hydroxy-piperidin-1-yl)-methanone] | 44.6
21 | CNc1nc(Nc2cc(OC)c(C(=O)N3CCC(F)(F)CC3)cc2Cl)ncc1Cl [Example 146, [5-Chloro-4-(5-chloro-4-methylamino-pyrimidin-2-ylamino)-2-methoxy-phenyl]-(4,4-difluoro-piperidin-1-yl)-methanone] | 7.8
22 | CNc1nc(Nc2ccc(C(=O)N3CCC3)cc2OC)ncc1Cl [Example 16, Azetidin-1-yl-[4-(5-chloro-4-methylamino-pyrimidin-2-ylamino)-3-methoxy-phenyl]-methanone] | 5.2
23 | COc1cc(C(=O)N2CCOCC2)ccc1Nc1ncc(Cl)c(NCC2CCOC2)n1 (stereo not shown) [Example 93, (4-{5-Chloro-4-[(tetrahydro-furan-3-ylmethyl)-amino]-pyrimidin-2-ylamino}-3-methoxy-phenyl)-morpholin-4-yl-methanone] | 14.1
24 | CNc1nc(Nc2ccc(C(=O)N3CCCCC3)cc2OC)ncc1Cl [Example 15, [4-(5-Chloro-4-methylamino-pyrimidin-2-ylamino)-3-methoxy-phenyl]-piperidin-1-yl-methanone] | 2.5
25 | CNc1nc(Nc2cc(OC)c(C(=O)N3CCCOCC3)cc2Cl)ncc1Cl [Example 165, [5-Chloro-4-(5-chloro-4-methylamino-pyrimidin-2-ylamino)-2-methoxy-phenyl]-[1,4]oxazepan-4-yl-methanone] | 5.7

Same assay, conditions: Table 5

Row | Compound | Ki [nM]
26 | COc1cc(C(=O)N2CCOCC2)ccc1Nc1ncc(Cl)c(OC2CCOCC2)n1 [Example 264, {4-[5-Chloro-4-(tetrahydro-pyran-4-yloxy)-pyrimidin-2-ylamino]-3-methoxy-phenyl}-morpholin-4-yl-methanone] | 33

Same assay, conditions: Table 6

Row | Compound | Ki [nM]
27 | CNc1nc(Nc2ccc(C(=O)N3CCOCC3)cc2C2CC2)ncc1C(F)(F)F [Example 289, [3-Cyclopropyl-4-(4-methylamino-5-trifluoromethyl-pyrimidin-2-ylamino)-phenyl]-morpholin-4-yl-methanone] | 20
28 | CCNc1nc(Nc2cc(F)c(C(=O)N(CC)CCOC)cc2OC)ncc1C(F)(F)F [Example 307, N-Ethyl-4-(4-ethylamino-5-trifluoromethyl-pyrimidin-2-ylamino)-2-fluoro-5-methoxy-N-(2-methoxy-ethyl)-benzamide] | 1.4
29 | CNc1nc(Nc2cc(OC)c(C(=O)N3CCOCC3)cc2Cl)ncc1Cl [Example 295, (5-chloro-4-(5-chloro-4-(methyl-amino)pyrimidin-2-ylamino)-2-methoxy-phenyl)(morpholino) methanone] | 6
30 | CNc1nc(Nc2ccc(C(=O)N3CCC(N(C)C)CC3)cc2OC)ncc1C(F)(F)F [Example 276, (4-Dimethylamino-piperidin-1-yl)-[3-methoxy-4-(4-methylamino-5-trifluoromethyl-pyrimidin-2-ylamino)-phenyl]-methanone] | 0.8

Same assay, conditions: Table 7

Row | Compound | Ki [nM]
31 | CCNc1nc(Nc2cc(F)c(C(=O)N3C[C@@H](C)O[C@@H](C)C3)cc2OC)ncc1C#N [Example 319, 2-[4-((2R,6S)-2,6-Dimethyl-morpholine-4-carbonyl)-5-fluoro-2-methoxy-phenylamino]-4-ethylamino-pyrimidine-5-carbonitrile] | 19.4
